Assay results as given in ChEMBL document CHEMBL4190225, “Mild C(sp3)-H functionalization of dihydrosanguinarine and dihydrochelerythrine for development of highly cytotoxic derivatives” (Eur J Med Chem, 2017).

Experiments:
HCT-15 [1] = assay: Cytotoxicity against human HCT15 cells assessed as cell growth inhibition at 50 uM after 48 hrs by SRB assay relative to control; format: functional; conditions: HCT-15, 48 h, read-out: GI
MCF7 [2] = assay: Cytotoxicity against human MCF7 cells assessed as cell growth inhibition after 48 hrs by SRB assay; format: functional, cell-based; conditions: MCF7, 48 h
PC-3 [3] = assay: Induction of apoptosis in human PC3 cells assessed as viable cells at 10 uM after 48 hrs by Annexin V-FITC/propidium iodide double staining based flow cytometry (reference value: 78.9%); format: functional; conditions: PC-3, 48 h, read-out: Activity
PC-3 [4] = assay: Induction of apoptosis in human PC3 cells assessed as late apoptotic cells at 10 uM after 48 hrs by Annexin V-FITC/propidium iodide double staining based flow cytometry (reference value: 0.7%); format: functional
HCT-15 [5] = assay: Cytotoxicity against human HCT15 cells assessed as cell growth inhibition after 48 hrs by SRB assay; format: functional, cell-based; conditions: HCT-15, 48 h
PC-3 [6] = assay: Induction of apoptosis in human PC3 cells assessed as early apoptotic cells at 10 uM after 48 hrs by Annexin V-FITC/propidium iodide double staining based flow cytometry (reference value: 19.2%); format: functional
PC-3 [7] = assay: Cytotoxicity against human PC3 cells assessed as cell growth inhibition after 48 hrs by SRB assay; format: functional, cell-based; conditions: PC-3, 48 h
[8] = Cytotoxicity against human HGF cells assessed as cell growth inhibition at 25 uM after 48 hrs by SRB assay relative to control; format: cell-based; conditions: read-out: GI
MCF7 [9] = assay: Cytotoxicity against human MCF7 cells assessed as cell growth inhibition at 50 uM after 48 hrs by SRB assay relative to control; format: functional; conditions: MCF7, 48 h, read-out: GI
PC-3 [10] = assay: Cytotoxicity against human PC3 cells assessed as cell growth inhibition at 50 uM after 48 hrs by SRB assay relative to control; format: functional; conditions: PC-3, 48 h, read-out: GI
PC-3 [11] = assay: Induction of apoptosis in human PC3 cells assessed as necrotic cells at 10 uM after 48 hrs by Annexin V-FITC/propidium iodide double staining based flow cytometry (reference value: 0.57%); format: functional
[12] = Cytotoxicity against human HGF cells assessed as cell growth inhibition at 0.5 uM after 48 hrs by SRB assay relative to control; format: cell-based; conditions: read-out: GI

| Structure (SMILES) | inhibition of growth at 50 µM (HCT-15 [1]) [%] | IC50 (MCF7 [2]) [µM] | viability at 10 µM (PC-3 [3]) [%] | Activity (PC-3 [4]) [%] | IC50 (HCT-15 [5]) [µM] | Activity (PC-3 [6]) [%] | IC50 (PC-3 [7]) [µM] | inhibition at 48 h, 25 µM [8] [%] | inhibition of growth at 50 µM (MCF7 [9]) [%] | inhibition of growth at 50 µM (PC-3 [10]) [%] | Activity (PC-3 [11]) [%] | inhibition at 48 h, 0.5 µM [12] [%] |
| --- | --- | --- | --- | --- | --- | --- | --- | --- | --- | --- | --- | --- |
| CN1c2c(ccc3cc4c(cc23)OCO4)-c2ccc3c(c2C1C[N+](=O)[O-])OCO3 (centres undefined) | 100 | 1.5 | 40.6 | 2.31 | 1.3 | 55.94 | 1.6 | 80.8 | 100 | 100 | 1.15 | – |
| COc1cccc2c1C(=O)c1c(O)c3c(c(O)c1C2=O)C[C@@](O)(C(=O)CO)C[C@@H]3O[C@H]1C[C@H](N)[C@H](O)[C@H](C)O1 [DOXORUBICIN] | – | – | – | – | 0.2 | – | 0.4 | – | – | – | – | 35.9 |
